Series [1] deals with Human immunodeficiency virus 1. In words: Effective concentration against wild-type HIV-1. Format: functional, organism-based.
Series [2] deals with Human immunodeficiency virus 1. In words: Inhibitory activity against HIV-1 mutant strain K103N/Y181C. In kind it is functional, organism-based.
Series [3] addresses Human immunodeficiency virus type 1 reverse transcriptase (Human immunodeficiency virus 1, UniProt Q72547). In words: Inhibitory activity against wild type reverse transcriptase (WT RT) of HIV-1.
Series [4] in a line: Half-life for oxidative metabolic stability was determined using rat liver microsomes. Format: ADME, Microsome. A general note: Microsomes from liver hold many membrane-bound enzymes, among them those of drug oxidation.
For the next series, the target named is Cytochrome P450 2C19 (Homo sapiens, UniProt P33261). In words: Inhibition of cytochrome P450 2C19. Format: ADME.
Cytochrome P450 2C19, sequence (P33261 whole entry): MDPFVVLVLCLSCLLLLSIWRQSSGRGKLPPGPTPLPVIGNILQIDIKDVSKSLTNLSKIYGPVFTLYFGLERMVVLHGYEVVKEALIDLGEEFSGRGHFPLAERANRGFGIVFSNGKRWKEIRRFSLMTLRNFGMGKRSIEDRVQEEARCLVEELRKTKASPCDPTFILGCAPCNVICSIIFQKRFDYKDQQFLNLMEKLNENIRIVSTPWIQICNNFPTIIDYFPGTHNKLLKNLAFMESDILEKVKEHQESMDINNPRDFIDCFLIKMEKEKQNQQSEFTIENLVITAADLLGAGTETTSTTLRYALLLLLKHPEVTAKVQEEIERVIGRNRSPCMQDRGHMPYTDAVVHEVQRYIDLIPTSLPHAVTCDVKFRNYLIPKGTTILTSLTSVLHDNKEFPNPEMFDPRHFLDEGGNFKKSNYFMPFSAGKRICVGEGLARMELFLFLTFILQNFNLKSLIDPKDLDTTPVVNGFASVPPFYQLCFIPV
Series [5] has as its target T1, Cytochrome P450 2C9 (Homo sapiens, UniProt P11712). In words: Inhibition of cytochrome P450 2C9. In kind it is ADME.
For series [6], the target named is T2, Cytochrome P450 1A2 (Homo sapiens, UniProt P05177).
T2 sequence (P05177 whole entry): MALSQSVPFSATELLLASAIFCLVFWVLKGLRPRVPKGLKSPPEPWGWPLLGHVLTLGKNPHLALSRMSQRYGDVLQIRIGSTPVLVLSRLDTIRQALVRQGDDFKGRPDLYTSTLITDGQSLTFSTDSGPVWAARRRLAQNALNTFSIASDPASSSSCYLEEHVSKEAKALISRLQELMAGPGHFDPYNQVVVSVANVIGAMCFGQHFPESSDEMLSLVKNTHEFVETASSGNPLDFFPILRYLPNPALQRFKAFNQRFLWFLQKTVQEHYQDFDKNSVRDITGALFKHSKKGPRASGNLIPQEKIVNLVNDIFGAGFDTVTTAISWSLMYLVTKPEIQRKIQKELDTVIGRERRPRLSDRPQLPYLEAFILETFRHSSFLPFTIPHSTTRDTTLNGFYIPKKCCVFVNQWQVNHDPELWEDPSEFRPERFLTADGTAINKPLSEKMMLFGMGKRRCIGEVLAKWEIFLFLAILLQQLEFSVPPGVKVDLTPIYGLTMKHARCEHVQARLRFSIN
In words: Inhibition of cytochrome P450 1A2. Format: ADME.

Series [7] deals with T3, Cytochrome P450 2D6 (Homo sapiens, UniProt P10635). In words: Inhibition of CYP450 (Cytochrome P450) 2D6. In kind it is ADME.
T3 sequence (P10635 whole entry): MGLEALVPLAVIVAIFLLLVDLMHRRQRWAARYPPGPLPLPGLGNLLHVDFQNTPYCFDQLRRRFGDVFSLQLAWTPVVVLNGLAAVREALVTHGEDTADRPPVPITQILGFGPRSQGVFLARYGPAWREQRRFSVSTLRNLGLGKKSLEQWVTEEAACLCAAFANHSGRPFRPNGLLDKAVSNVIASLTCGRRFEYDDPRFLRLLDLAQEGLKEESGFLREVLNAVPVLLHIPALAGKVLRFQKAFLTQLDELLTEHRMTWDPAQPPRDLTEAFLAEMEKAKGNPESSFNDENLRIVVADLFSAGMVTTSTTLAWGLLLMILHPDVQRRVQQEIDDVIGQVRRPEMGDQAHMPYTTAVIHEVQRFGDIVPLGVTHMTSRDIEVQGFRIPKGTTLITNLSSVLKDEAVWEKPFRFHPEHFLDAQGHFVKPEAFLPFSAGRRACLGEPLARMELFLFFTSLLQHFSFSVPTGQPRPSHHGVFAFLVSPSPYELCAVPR
For series [8], the target named is T4, Cytochrome P450 3A4 (Homo sapiens, UniProt P08684). In words: Inhibition of CYP450 (Cytochrome P450) 3A4 with fluorogenic substrate BFC. In kind it is ADME.
T4 sequence (P08684 whole entry): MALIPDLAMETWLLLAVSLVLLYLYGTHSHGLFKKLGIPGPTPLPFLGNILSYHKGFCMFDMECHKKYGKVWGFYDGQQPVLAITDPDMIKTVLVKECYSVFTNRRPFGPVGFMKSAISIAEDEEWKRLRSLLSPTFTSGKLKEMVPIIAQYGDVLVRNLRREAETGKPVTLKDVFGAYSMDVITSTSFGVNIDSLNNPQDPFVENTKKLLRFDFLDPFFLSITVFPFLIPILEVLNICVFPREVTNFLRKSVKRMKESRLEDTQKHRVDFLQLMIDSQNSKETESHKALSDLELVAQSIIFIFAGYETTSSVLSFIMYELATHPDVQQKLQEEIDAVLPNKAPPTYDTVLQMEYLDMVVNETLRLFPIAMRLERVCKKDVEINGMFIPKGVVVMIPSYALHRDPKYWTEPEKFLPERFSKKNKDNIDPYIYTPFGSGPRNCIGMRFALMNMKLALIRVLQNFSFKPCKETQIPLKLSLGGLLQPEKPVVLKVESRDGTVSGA
For series [9], the target named is T4, Cytochrome P450 3A4. In words: Inhibition of CYP450 (Cytochrome P450) 3A4 with fluorogenic substrate BQ. In kind it is ADME.
The subject of series [10] is Human immunodeficiency virus 1. In words: Effective concentration against mutant K103N/Y181C of HIV-1. Format: functional, organism-based.
The species named for a further series is Homo sapiens. In words: Half-life for oxidative metabolic stability was determined using male human. As to conditions: in vitro.
Series [11] is described as follows: Plasma clearance in rats. As to conditions: rat. In kind it is ADME, organism-based.
Series [12] in a line: Volume of distribution at steady state was evaluated in rats. The conditions noted are these: rat, in vivo; read-out: Vss. In kind it is ADME, organism-based.
Series [13] in a line: Bioavailability in rats was evaluated. In kind it is ADME, organism-based. The conditions noted are these: rat, in vivo; read-out: Bioavailabiility.
Series [14] in a line: Maximum concentration was evaluated in rats. The conditions noted are these: rat, in vivo. Format: ADME, organism-based.
Series [15] concerns the target T3, Cytochrome P450 2D6. In words: Inhibition of cytochrome P450 2D6. In kind it is ADME.
Series [16] is described as follows: Half-life consistent with the observed metabolic steady state in rats. In kind it is ADME, organism-based. As to conditions: rat, in vivo.
For series [17], the target named is T2, Cytochrome P450 1A2. In words: Inhibition of CYP450 (Cytochrome P450) 1A2. Format: ADME.
For series [18], the target named is T1, Cytochrome P450 2C9. In words: Inhibition of CYP450 (Cytochrome P450) 2C9. Format: ADME.

T1 sequence (P11712 whole entry): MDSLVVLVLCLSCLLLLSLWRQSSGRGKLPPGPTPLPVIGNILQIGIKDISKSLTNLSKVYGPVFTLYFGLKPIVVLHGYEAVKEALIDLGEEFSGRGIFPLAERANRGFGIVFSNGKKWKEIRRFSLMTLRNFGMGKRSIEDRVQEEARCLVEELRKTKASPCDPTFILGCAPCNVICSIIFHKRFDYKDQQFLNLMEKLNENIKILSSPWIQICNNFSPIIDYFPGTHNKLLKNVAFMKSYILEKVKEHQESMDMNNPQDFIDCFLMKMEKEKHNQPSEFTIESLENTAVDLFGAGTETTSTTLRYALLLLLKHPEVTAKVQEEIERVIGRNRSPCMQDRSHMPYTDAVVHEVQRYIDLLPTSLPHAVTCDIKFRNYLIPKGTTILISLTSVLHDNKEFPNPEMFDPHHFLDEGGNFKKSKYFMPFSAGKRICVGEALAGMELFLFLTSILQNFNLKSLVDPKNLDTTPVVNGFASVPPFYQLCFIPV

The compound `CCN1c2ncc(CSc3ccncc3)cc2C(=O)N(C)c2ccc(Cl)nc21` registered an EC50 in series [1] of 0.31 nM. The IC50 came to 26 nM in series [2] and 3 nM in [3].
In the same order, the values of `CCN1c2ncc(CSc3ccncc3)cc2C(=O)Nc2c(C)cc(Cl)nc21` are 0.48 nM, 80 nM and 2.2 nM.
The corresponding values for `CCN1c2ncc(CSc3ccncc3C)cc2C(=O)Nc2c(C)cc(Cl)nc21` are 3.1 nM, 1640 nM and 11 nM.
On to `CCN1c2ncc(CSc3cc(C)nc(C)c3)cc2C(=O)Nc2c(C)cc(F)nc21`, for which the half-life (in series [4]; in the series filed under Homo sapiens) was 5 min throughout. Further, the IC50 was 5400 nM against Cytochrome P450 2C19; 4500 nM on Cytochrome P450 2C9 [5]; 26000 nM at Cytochrome P450 1A2 [6]; 27000 nM against Cytochrome P450 2D6 [7]; 2500 nM against Cytochrome P450 3A4 [8]; 10000 nM at Cytochrome P450 3A4 [9]. For the same compound, the results for the IC50 in series [2] and in [3] were 120 nM and 6.9 nM, respectively. Moreover, the EC50 came out at 21 nM in [10] and 1 nM in [1].
Turning to `CCN1c2ncc(CSc3cncnc3)cc2C(=O)Nc2c(C)cc(Cl)nc21`, the EC50 in [1] turned out to be 7.8 nM. In addition, the values for the IC50 in [2] and in series [3] were 5000 nM and 26 nM, respectively.
In series [1], `CCN1c2ncc(CSc3ccnc(C)c3)cc2C(=O)Nc2c(C)cc(Cl)nc21` yielded an EC50 of 3.4 nM. For the same compound, the IC50 turned out to be 310 nM in series [2] and 27 nM in series [3].
Regarding `CCN1c2ncc(CSc3cc(C)nc(C)c3)cc2C(=O)Nc2c(C)cc(Cl)nc21`, in [11], the clearance turned out to be 57 mL/min/kg. Moreover, in series [12], the Vd was 4.68 L/kg. Further, in [13], the bioavailability stood at 76%. For the same compound, in series [14], the Cmax amounted to 800 nM. For the same compound, the half-life in series [4] is 4 min; in [16] it was 90 min; in the series listed under Homo sapiens, 7 min. Besides, the IC50 at Cytochrome P450 2C19 was 4200 nM; on Cytochrome P450 2C9 [5] it was 2600 nM; at Cytochrome P450 1A2 [6], 23000 nM; against Cytochrome P450 3A4 [8], 2300 nM; against Cytochrome P450 3A4 [9], 8100 nM; against Cytochrome P450 2D6 [15], 27000 nM. The values for the IC50 in [2] and in series [3] were 60 nM and 7 nM, respectively. Moreover, the results for the EC50 in series [10] and in [1] were 14 nM and 1.2 nM, respectively.
On to `Cc1cc(SCc2cnc3c(c2)C(=O)Nc2c(C)cc(Cl)nc2N3C2CC2)cc(C)n1`, for which the EC50 in [10] worked out at 104 nM; in series [1], 2.2 nM. Further, the IC50 in [2] was 280 nM; in series [3], 12 nM.
As for `CCN1c2ncc(CSc3nc(C)cc(C)n3)cc2C(=O)Nc2c(C)cc(Cl)nc21`, the concentration for a half-maximal effect (EC50) in series [1] came to 1.5 nM. Moreover, the IC50 was found to be 320 nM in [2] and 6 nM in series [3].
For the compound `CCN1c2ncc(CSc3cc(C)nc(C)c3)cc2C(=O)Nc2c(C)ccnc21`, the half-life (in series [4]; in the series listed under Homo sapiens) was 9 min in each case. In addition, the IC50 on Cytochrome P450 2C19 is 26000 nM; on Cytochrome P450 1A2 [17], above 30000 nM; on Cytochrome P450 2C9 [18], 7400 nM; against Cytochrome P450 2D6 [7], above 30000 nM; at Cytochrome P450 3A4 [8] it was 1600 nM; at Cytochrome P450 3A4 [9], 10000 nM. Besides, the IC50 in series [2] came out at 170 nM; in series [3], 4.2 nM. Besides, the EC50 in series [10] was 12 nM; in series [1], 0.46 nM.
In series [1], `CCN1c2ncc(CSc3nc4ccccc4o3)cc2C(=O)Nc2c(C)cc(Cl)nc21` yielded an EC50 of 2.7 nM. In addition, the IC50 in [2] came out at 230 nM; in series [3], 8 nM.

Usually EC50 stands for the concentration needed to bring the measured effect to its halfway point. Low values mean an effect from little substance, high ones a need for much substance. The term IC50 denotes the concentration needed to halve the response being measured. Read a low IC50 as greater potency in that assay. By half-life is commonly meant the time in which the quantity being followed falls by half. Low values mean fast loss, high ones slow loss. As usually defined, the clearance is the volume of plasma or blood freed of the substance per unit of time. A high value points to efficient removal. One may read the Cmax as the maximum level reached in the sampled fluid or tissue.

These data come from ChEMBL document CHEMBL1137947, “Novel nevirapine-like inhibitors with improved activity against NNRTI-resistant HIV: 8-heteroarylthiomethyldipyridodiazepinone derivatives” (Bioorg Med Chem Lett, 2004).
